Assay results: PubChem BioAssay AID1918952 (Molecular Pharmacology Branch, DTP, NCI, 2023)

Tested on: LG0703-F948-PDC complex spheroid viability
Assay: Anticancer human tumor LG0703-F948-PDC patient-derived lung adenocarcinoma cell line growth inhibition
Conditions: for IC50: curve of first compound; for viability, T/C: stronger effect = lower value
Method in brief: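 Multicellular complex spheroids of tumor cells with human endothelial cells (HUVEC) and mesenchymal stem cells; the LSD1 inhibitor iadademstat was combined with standard-of-care or investigational agents. Top concentration at or near clinical Cmax, half-log dilutions; final DMSO ≤0.25%.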

[1] = second compound 0.1 µM, first compound 0.0316 µM
[2] = second compound 0.1 µM, first compound 0.1 µM
[3] = second compound 0.1 µM, first compound 0.316 µM
[4] = second compound 0.1 µM, first compound 1 µM
[5] = second compound 0.316 µM, first compound 0.0316 µM
[6] = second compound 0.316 µM, first compound 0.1 µM
[7] = second compound 0.316 µM, first compound 0.316 µM
[8] = second compound 0.316 µM, first compound 1 µM
[9] = second compound 1 µM, first compound 0.0316 µM
[10] = second compound 1 µM, first compound 0.1 µM
[11] = second compound 1 µM, first compound 0.316 µM
[12] = second compound 1 µM, first compound 1 µM
[13] = second compound 3.16 µM, first compound 0.0316 µM
[14] = second compound 3.16 µM, first compound 0.1 µM
[15] = second compound 3.16 µM, first compound 0.316 µM
[16] = second compound 3.16 µM, first compound 1 µM
[17] = second compound 10 µM, first compound 0.0316 µM
[18] = second compound 10 µM, first compound 0.1 µM
[19] = second compound 10 µM, first compound 0.316 µM
[20] = second compound 10 µM, first compound 1 µM
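Further: spheroids exposed to agents for seven days before readout.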
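Wherever viability, T/C is given: 100% = DMSO vehicle control wells as normalization base.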

COc1ccc([C@@H](O)c2cc(-c3ncnc4cc(N5CCOCC5)ccc34)c(F)cc2Cl)nn1 + NC1CCC(NC2CC2c2ccccc2)CC1
IC50 (second compound 0.1 µM): 1160 nM
IC50 (second compound 0.316 µM): 1170 nM
IC50 (second compound 1 µM): 1230 nM
IC50 (second compound 3.16 µM): 1170 nM
IC50 (second compound 10 µM): 1030 nM
viability, T/C [1]: 100%
viability, T/C [2]: 97.4%
viability, T/C [3]: 88.4%
viability, T/C [4]: 54.5%
viability, T/C (second compound 0.1 µM, first compound 3.16 µM): 17.4%
viability, T/C (second compound 0.1 µM, first compound 10 µM): 3.58%
viability, T/C [5]: 92.3%
viability, T/C [6]: 110%
viability, T/C [7]: 87.3%
viability, T/C [8]: 54.8%
viability, T/C (second compound 0.316 µM, first compound 3.16 µM): 18.7%
viability, T/C (second compound 0.316 µM, first compound 10 µM): 4.54%
viability, T/C [9]: 110%
viability, T/C [10]: 97.4%
viability, T/C [11]: 84%
viability, T/C [12]: 61.8%
viability, T/C (second compound 1 µM, first compound 3.16 µM): 16.1%
viability, T/C (second compound 1 µM, first compound 10 µM): 3.83%
viability, T/C [13]: 112%
viability, T/C [14]: 95.3%
viability, T/C [15]: 89.6%
viability, T/C [16]: 56.5%
viability, T/C (second compound 3.16 µM, first compound 3.16 µM): 16.7%
viability, T/C (second compound 3.16 µM, first compound 10 µM): 3.27%
viability, T/C [17]: 118%
viability, T/C [18]: 107%
viability, T/C [19]: 92.4%
viability, T/C [20]: 52.2%
viability, T/C (second compound 10 µM, first compound 3.16 µM): 12.4%
viability, T/C (second compound 10 µM, first compound 10 µM): 3.19%

Nc1ncn(C2CC(O)C(CO)S2)c(=O)n1 (stereo not given) + NC1CCC(NC2CC2c2ccccc2)CC1
IC50 (second compound 0.1 µM): > 300 nM
IC50 (second compound 0.316 µM): > 300 nM
IC50 (second compound 1 µM): > 300 nM
IC50 (second compound 3.16 µM): > 300 nM
IC50 (second compound 10 µM): > 300 nM
viability, T/C (second compound 0.1 µM, first compound 0.000949 µM): 114%
viability, T/C (second compound 0.1 µM, first compound 0.003 µM): 117%
viability, T/C (second compound 0.1 µM, first compound 0.00949 µM): 107%
viability, T/C (second compound 0.1 µM, first compound 0.03 µM): 120%
viability, T/C (second compound 0.1 µM, first compound 0.0949 µM): 113%
viability, T/C (second compound 0.1 µM, first compound 0.3 µM): 99.9%
viability, T/C (second compound 0.316 µM, first compound 0.000949 µM): 124%
viability, T/C (second compound 0.316 µM, first compound 0.003 µM): 123%
viability, T/C (second compound 0.316 µM, first compound 0.00949 µM): 121%
viability, T/C (second compound 0.316 µM, first compound 0.03 µM): 113%
viability, T/C (second compound 0.316 µM, first compound 0.0949 µM): 128%
viability, T/C (second compound 0.316 µM, first compound 0.3 µM): 99.8%
viability, T/C (second compound 1 µM, first compound 0.000949 µM): 112%
viability, T/C (second compound 1 µM, first compound 0.003 µM): 115%
viability, T/C (second compound 1 µM, first compound 0.00949 µM): 118%
viability, T/C (second compound 1 µM, first compound 0.03 µM): 122%
viability, T/C (second compound 1 µM, first compound 0.0949 µM): 123%
viability, T/C (second compound 1 µM, first compound 0.3 µM): 104%
viability, T/C (second compound 3.16 µM, first compound 0.000949 µM): 121%
viability, T/C (second compound 3.16 µM, first compound 0.003 µM): 125%
viability, T/C (second compound 3.16 µM, first compound 0.00949 µM): 115%
viability, T/C (second compound 3.16 µM, first compound 0.03 µM): 121%
viability, T/C (second compound 3.16 µM, first compound 0.0949 µM): 137%
viability, T/C (second compound 3.16 µM, first compound 0.3 µM): 119%
viability, T/C (second compound 10 µM, first compound 0.000949 µM): 116%
viability, T/C (second compound 10 µM, first compound 0.003 µM): 126%
viability, T/C (second compound 10 µM, first compound 0.00949 µM): 115%
viability, T/C (second compound 10 µM, first compound 0.03 µM): 107%
viability, T/C (second compound 10 µM, first compound 0.0949 µM): 113%
viability, T/C (second compound 10 µM, first compound 0.3 µM): 108%

O=C(C=Cn1cnc(-c2cc(C(F)(F)F)cc(C(F)(F)F)c2)n1)NNc1cnccn1 + NC1CCC(NC2CC2c2ccccc2)CC1
IC50 (second compound 0.1 µM): < 3.16 nM
IC50 (second compound 0.316 µM): < 3.16 nM
IC50 (second compound 1 µM): 9.15 nM
IC50 (second compound 3.16 µM): 29 nM
IC50 (second compound 10 µM): < 3.16 nM
viability, T/C (second compound 0.1 µM, first compound 0.00316 µM): 45.3%
viability, T/C (second compound 0.1 µM, first compound 0.01 µM): 50.8%
viability, T/C [1]: 37.8%
viability, T/C [2]: 33%
viability, T/C [3]: 30.6%
viability, T/C [4]: 25.1%
viability, T/C (second compound 0.316 µM, first compound 0.00316 µM): 47.3%
viability, T/C (second compound 0.316 µM, first compound 0.01 µM): 47.5%
viability, T/C [5]: 43.8%
viability, T/C [6]: 31.8%
viability, T/C [7]: 33%
viability, T/C [8]: 33.9%
viability, T/C (second compound 1 µM, first compound 0.00316 µM): 56.6%
viability, T/C (second compound 1 µM, first compound 0.01 µM): 50.1%
viability, T/C [9]: 44.5%
viability, T/C [10]: 37.6%
viability, T/C [11]: 29.7%
viability, T/C [12]: 33.8%
viability, T/C (second compound 3.16 µM, first compound 0.00316 µM): 58.4%
viability, T/C (second compound 3.16 µM, first compound 0.01 µM): 57.2%
viability, T/C [13]: 48.3%
viability, T/C [14]: 41.1%
viability, T/C [15]: 32.8%
viability, T/C [16]: 30.2%
viability, T/C (second compound 10 µM, first compound 0.00316 µM): 41.7%
viability, T/C (second compound 10 µM, first compound 0.01 µM): 45.7%
viability, T/C [17]: 45.7%
viability, T/C [18]: 44.9%
viability, T/C [19]: 37.4%
viability, T/C [20]: 23.5%
